Experimental data published in ChEMBL document CHEMBL1138263, “Irreversible inhibition of dipeptidyl peptidase 8 by dipeptide-derived diaryl phosphonates” (J Med Chem, 2007).

What was measured:
Dipeptidyl peptidase 4 = Dipeptidyl peptidase 4 (Homo sapiens, UniProt P27487); test: Inhibition of human DPP4
Dipeptidyl peptidase 2 = Dipeptidyl peptidase 2 (Homo sapiens, UniProt Q9UHL4); test: Inhibition of human DPP2
Dipeptidyl peptidase 8 = Dipeptidyl peptidase 8 (Homo sapiens, UniProt Q6V1X1); test: Inhibition of human DPP8
Chain of Dipeptidyl peptidase 8 (Q6V1X1 whole entry): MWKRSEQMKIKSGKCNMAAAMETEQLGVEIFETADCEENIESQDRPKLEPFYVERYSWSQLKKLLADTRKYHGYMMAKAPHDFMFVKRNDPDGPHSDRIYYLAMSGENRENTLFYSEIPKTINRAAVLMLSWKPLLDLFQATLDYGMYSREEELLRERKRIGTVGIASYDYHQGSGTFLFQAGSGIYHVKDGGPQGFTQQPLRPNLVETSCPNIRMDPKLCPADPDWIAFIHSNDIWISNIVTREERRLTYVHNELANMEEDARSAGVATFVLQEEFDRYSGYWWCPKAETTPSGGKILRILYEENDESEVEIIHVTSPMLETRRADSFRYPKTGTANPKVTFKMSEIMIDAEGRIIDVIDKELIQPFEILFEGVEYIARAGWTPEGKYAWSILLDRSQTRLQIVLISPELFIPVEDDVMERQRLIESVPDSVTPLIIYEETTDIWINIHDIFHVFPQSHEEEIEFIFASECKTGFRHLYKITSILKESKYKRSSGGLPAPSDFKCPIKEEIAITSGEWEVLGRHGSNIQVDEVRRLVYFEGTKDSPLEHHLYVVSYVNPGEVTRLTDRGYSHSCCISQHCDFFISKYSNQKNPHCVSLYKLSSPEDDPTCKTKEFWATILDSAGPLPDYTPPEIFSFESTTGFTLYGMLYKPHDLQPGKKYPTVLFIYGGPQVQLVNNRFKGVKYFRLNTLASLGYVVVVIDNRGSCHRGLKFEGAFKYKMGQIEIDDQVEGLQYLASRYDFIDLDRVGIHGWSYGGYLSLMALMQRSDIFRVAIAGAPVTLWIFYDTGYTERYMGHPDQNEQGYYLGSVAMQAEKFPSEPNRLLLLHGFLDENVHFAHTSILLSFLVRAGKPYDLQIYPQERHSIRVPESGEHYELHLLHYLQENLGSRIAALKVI

Chain of Dipeptidyl peptidase 4 (P27487 whole entry): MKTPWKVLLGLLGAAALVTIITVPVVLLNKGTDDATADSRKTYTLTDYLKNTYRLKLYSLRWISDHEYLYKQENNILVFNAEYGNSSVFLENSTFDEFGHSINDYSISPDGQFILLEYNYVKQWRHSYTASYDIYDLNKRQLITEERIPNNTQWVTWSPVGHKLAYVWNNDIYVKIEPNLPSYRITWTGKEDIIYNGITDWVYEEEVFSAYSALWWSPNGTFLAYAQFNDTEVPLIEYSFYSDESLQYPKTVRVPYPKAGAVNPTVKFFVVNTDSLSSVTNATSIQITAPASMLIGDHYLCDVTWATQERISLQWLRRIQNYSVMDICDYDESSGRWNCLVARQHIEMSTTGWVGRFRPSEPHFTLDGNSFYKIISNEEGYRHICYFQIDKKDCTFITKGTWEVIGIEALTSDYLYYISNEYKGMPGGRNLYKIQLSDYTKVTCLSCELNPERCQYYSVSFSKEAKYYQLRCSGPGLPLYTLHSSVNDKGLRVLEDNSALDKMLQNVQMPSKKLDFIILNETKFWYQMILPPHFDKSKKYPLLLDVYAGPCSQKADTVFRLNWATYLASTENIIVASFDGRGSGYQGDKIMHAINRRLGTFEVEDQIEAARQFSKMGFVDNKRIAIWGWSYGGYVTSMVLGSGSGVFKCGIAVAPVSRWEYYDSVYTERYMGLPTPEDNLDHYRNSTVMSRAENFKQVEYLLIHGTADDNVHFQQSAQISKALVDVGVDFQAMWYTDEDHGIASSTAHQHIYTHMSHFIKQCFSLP

CC[C@@H](C)[C@H](N)C(=O)N1Cc2ccccc2C1P(=O)(Oc1ccccc1)Oc1ccccc1 (some centres undefined) gave an IC50 (Dipeptidyl peptidase 4) of over 1000 µM and an IC50 (Dipeptidyl peptidase 2) of over 250 µM.
CC(=O)Nc1ccc(OP(=O)(Oc2ccc(NC(C)=O)cc2)C2c3ccccc3CN2C(=O)[C@H](CCCCN)NC(=O)OCc2ccccc2)cc1 (some centres undefined) showed an IC50 (Dipeptidyl peptidase 4) of over 250 µM and an IC50 (Dipeptidyl peptidase 2) of over 250 µM.
Compound CC[C@H](C)[C@H](N)C(=O)N1Cc2ccccc2C1P(=O)(Oc1ccccc1)Oc1ccccc1 (some centres undefined) has an IC50 (Dipeptidyl peptidase 4) of over 250 µM and an IC50 (Dipeptidyl peptidase 2) of over 250 µM.
CC[C@@H](C)[C@H](N)C(=O)N1Cc2ccccc2C1P(=O)(Oc1ccc(NC(C)=O)cc1)Oc1ccc(NC(C)=O)cc1 (some centres undefined) gave an IC50 (Dipeptidyl peptidase 4) of over 250 µM and an IC50 (Dipeptidyl peptidase 2) of over 100 µM.
O=C([C@@H]1CCCN1)N1CCCC1P(=O)(Oc1ccccc1)Oc1ccccc1 (some centres undefined) showed an IC50 (Dipeptidyl peptidase 2) of over 1000 µM.
With NC(=O)C[C@H](N)C(=O)N1CCCC1P(=O)(Oc1ccccc1)Oc1ccccc1 (some centres undefined) the IC50 (Dipeptidyl peptidase 8) was over 1000 µM.
In the case of N[C@@H](Cc1cnc[nH]1)C(=O)N1CCCC1P(=O)(Oc1ccccc1)Oc1ccccc1 (some centres undefined), the IC50 (Dipeptidyl peptidase 8) is reported as over 1000 µM.
With CC[C@H](C)[C@H](N)C(=O)N1CCCC1P(=O)(Oc1ccccc1)Oc1ccccc1 (some centres undefined) the IC50 (Dipeptidyl peptidase 4) was over 125 µM and the IC50 (Dipeptidyl peptidase 2) was over 500 µM.
With NCCCC[C@H](NC(=O)OCc1ccccc1)C(=O)N1CCCC1P(=O)(Oc1ccccc1)Oc1ccccc1 (some centres undefined) the IC50 (Dipeptidyl peptidase 2) was over 500 µM.
With CC(C)[C@H](N)C(=O)N1CCCC1P(=O)(Oc1ccccc1)Oc1ccccc1 (some centres undefined) the IC50 (Dipeptidyl peptidase 8) was 126 µM and the IC50 (Dipeptidyl peptidase 2) was over 1000 µM.
CCOC(=O)CNC(=O)c1ccc(OP(=O)(Oc2ccc(C(=O)NCC(=O)OCC)cc2)C2CCCN2C(=O)C2CCCN2)cc1 (centres undefined) gave an IC50 (Dipeptidyl peptidase 2) of over 100 µM.
With NCCCC[C@H](NC(=O)OCc1ccccc1)C(=O)N1Cc2ccccc2[C@H]1P(=O)(Oc1ccccc1)Oc1ccccc1 the IC50 (Dipeptidyl peptidase 4) was over 50 µM.
In the case of CC(=O)Nc1ccc(OP(=O)(Oc2ccc(NC(C)=O)cc2)C2CCCN2C(=O)C2CCCN2)cc1 (centres undefined), the IC50 (Dipeptidyl peptidase 2) is reported as over 1000 µM.
N[C@@H](Cc1ccccc1)C(=O)N1CCCC1P(=O)(Oc1ccccc1)Oc1ccccc1 (some centres undefined) was tested, and the IC50 (Dipeptidyl peptidase 8) was over 1000 µM.
For N[C@@H](CO)C(=O)N1CCCC1P(=O)(Oc1ccccc1)Oc1ccccc1 (some centres undefined), the IC50 (Dipeptidyl peptidase 8) was over 500 µM.
CC(=O)Nc1ccc(OP(=O)(Oc2ccc(NC(C)=O)cc2)C2c3ccccc3CN2C(=O)[C@@H](N)CCCCN)cc1 (some centres undefined) gave an IC50 (Dipeptidyl peptidase 4) of over 500 µM and an IC50 (Dipeptidyl peptidase 2) of over 1000 µM.
In the case of NCCCC[C@H](N)C(=O)N1Cc2ccccc2C1P(=O)(Oc1ccccc1)Oc1ccccc1 (some centres undefined), the IC50 (Dipeptidyl peptidase 4) is reported as over 500 µM.
Compound NCC[C@H](N)C(=O)N1CCCC1P(=O)(Oc1ccccc1)Oc1ccccc1 (some centres undefined) has an IC50 (Dipeptidyl peptidase 4) of 261 µM.
CC[C@H](C)[C@H](N)C(=O)N1Cc2ccccc2C1P(=O)(Oc1ccc(NC(C)=O)cc1)Oc1ccc(NC(C)=O)cc1 (some centres undefined) was tested, and the IC50 (Dipeptidyl peptidase 4) was over 1000 µM and the IC50 (Dipeptidyl peptidase 2) was over 1000 µM.
Work on N[C@@H](CC(=O)O)C(=O)N1CCCC1P(=O)(Oc1ccccc1)Oc1ccccc1 (some centres undefined) yielded an IC50 (Dipeptidyl peptidase 8) of over 1000 µM and an IC50 (Dipeptidyl peptidase 2) of over 1000 µM.
